Data reported in ChEMBL document CHEMBL1159141, “Synthesis and biology of substituted 3-phenyl taxol analogues” (1994).

Legend:
[1] = target: Tubulin alpha chain (Sus scrofa) (UniProt P02550); assay: In vitro concentration which causes polymerization of 50% of the tubulin, activity relative to taxol (ED50=1); type: functional
B16 = assay: In vitro concentration which causes 50% inhibition of proliferation of B16 melanoma cells, activity relative to taxol (ED50=1); type: functional, Mus musculus
HCT-116 = assay: In vitro concentration which causes 50% inhibition against HCT116 cell line, activity relative to taxol (ED50=1); type: functional, Homo sapiens

Sequence of Tubulin alpha chain (Sus scrofa) (P02550 whole entry, looked up): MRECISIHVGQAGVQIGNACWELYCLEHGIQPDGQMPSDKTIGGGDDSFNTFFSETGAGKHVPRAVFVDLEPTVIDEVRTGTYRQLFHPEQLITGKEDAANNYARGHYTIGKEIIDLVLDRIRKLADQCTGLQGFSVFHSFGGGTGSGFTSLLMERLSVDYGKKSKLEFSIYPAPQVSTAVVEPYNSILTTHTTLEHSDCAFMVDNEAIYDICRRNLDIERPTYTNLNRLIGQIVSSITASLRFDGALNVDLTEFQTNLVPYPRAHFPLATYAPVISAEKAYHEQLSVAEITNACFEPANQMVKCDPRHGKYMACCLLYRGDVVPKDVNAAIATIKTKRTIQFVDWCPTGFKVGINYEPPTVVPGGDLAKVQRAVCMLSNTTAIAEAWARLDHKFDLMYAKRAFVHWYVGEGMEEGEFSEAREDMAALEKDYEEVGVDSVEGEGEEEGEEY

Compound	ED50 ratio [1]	ED50 ratio (B16)	ED50 ratio (HCT-116)
CC(=O)O[C@H]1C(=O)[C@@]2(C)[C@H]([C@H](OC(=O)c3ccccc3)[C@]3(O)C[C@H](OC(=O)[C@H](O)[C@H](NC(=O)c4ccccc4)c4ccc(Cl)c(Cl)c4)C(C)=C1C3(C)C)[C@]1(OC(C)=O)CO[C@@H]1C[C@@H]2O	7.1	40	
CC(=O)O[C@H]1C(=O)[C@@]2(C)[C@H]([C@H](OC(=O)c3ccccc3)[C@]3(O)C[C@H](OC(=O)[C@H](O)[C@H](NC(=O)c4ccccc4)c4cccc(N(C)C)c4)C(C)=C1C3(C)C)[C@]1(OC(C)=O)CO[C@@H]1C[C@@H]2O	4.6	5.8	
CC(=O)O[C@H]1C(=O)[C@@]2(C)[C@H]([C@H](OC(=O)c3ccccc3)[C@]3(O)C[C@H](OC(=O)[C@H](O)[C@H](NC(=O)c4ccccc4)c4cccc(Cl)c4)C(C)=C1C3(C)C)[C@]1(OC(C)=O)CO[C@@H]1C[C@@H]2O	4.4	6.7	
CC(=O)O[C@H]1C(=O)[C@@]2(C)[C@H]([C@H](OC(=O)c3ccccc3)[C@]3(O)C[C@H](OC(=O)[C@H](O)[C@H](NC(=O)c4ccccc4)c4ccc(F)cc4)C(C)=C1C3(C)C)[C@]1(OC(C)=O)CO[C@@H]1C[C@@H]2O	1.1	1.2	
COc1ccc([C@@H](NC(=O)c2ccccc2)[C@@H](O)C(=O)O[C@H]2C[C@@]3(O)[C@@H](OC(=O)c4ccccc4)[C@@H]4[C@]5(OC(C)=O)CO[C@@H]5C[C@H](O)[C@@]4(C)C(=O)[C@H](OC(C)=O)C(=C2C)C3(C)C)cc1	0.5	1	
CC(=O)O[C@H]1C(=O)[C@@]2(C)[C@H]([C@H](OC(=O)c3ccccc3)[C@]3(O)C[C@H](OC(=O)[C@H](O)[C@@H](NC(=O)c4ccccc4)c4ccccc4)C(C)=C1C3(C)C)[C@]1(OC(C)=O)CO[C@@H]1C[C@@H]2O [PACLITAXEL]	1	1	
CC(=O)O[C@H]1C(=O)[C@@]2(C)[C@H]([C@H](OC(=O)c3ccccc3)[C@]3(O)C[C@H](OC(=O)[C@H](O)[C@H](NC(=O)c4ccccc4)c4ccc([N+](=O)[O-])cc4)C(C)=C1C3(C)C)[C@]1(OC(C)=O)CO[C@@H]1C[C@@H]2O	1.1		35
CC(=O)O[C@H]1C(=O)[C@@]2(C)[C@H]([C@H](OC(=O)c3ccccc3)[C@]3(O)C[C@H](OC(=O)[C@H](O)[C@H](NC(=O)c4ccccc4)c4ccc(C)cc4)C(C)=C1C3(C)C)[C@]1(OC(C)=O)CO[C@@H]1C[C@@H]2O	2.4	3	
CC(=O)O[C@H]1C(=O)[C@@]2(C)[C@H]([C@H](OC(=O)c3ccccc3)[C@]3(O)C[C@H](OC(=O)[C@H](O)[C@H](NC(=O)c4ccccc4)c4ccccc4C)C(C)=C1C3(C)C)[C@]1(OC(C)=O)CO[C@@H]1C[C@@H]2O	5.1	>33	
CC(=O)O[C@H]1C(=O)[C@@]2(C)[C@H]([C@H](OC(=O)c3ccccc3)[C@]3(O)C[C@H](OC(=O)[C@H](O)[C@H](NC(=O)c4ccccc4)c4ccc(Cl)cc4)C(C)=C1C3(C)C)[C@]1(OC(C)=O)CO[C@@H]1C[C@@H]2O	1.9	2.2	
